What all share (test): pIC50, kinobeads binding competition
The target in one assay is BRAF (UniProt P15056). The procedure, abridged:
(§1)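 pIC50 was obtained by fitting fold changes against vehicle to logistic dose-response curves with the R drc package, using biological duplicates. Kinobeads-bound proteins were digested and measured by TMT10 LC-MS/MS. Before this, either living Jurkat cells received nine compound concentrations (top 30 μM, 1:4 steps) for 60 min at 37 °C prior to lysis, or Jurkat lysate or a 1:1:1:1 HEK293/K-562/HepG2/placenta lysate mix received nine concentrations (top 30 μM, 1:5 steps) for 60 min at 4 °C.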

The target in a further assay is IGF1R (UniProt P08069). The procedure, abridged: as §1
In another assay the target is MARK2 (UniProt Q7KZI7). The procedure, abridged: as §1
For a further assay, the target named is T1, UniProt O14965.
T1 sequence (whole entry): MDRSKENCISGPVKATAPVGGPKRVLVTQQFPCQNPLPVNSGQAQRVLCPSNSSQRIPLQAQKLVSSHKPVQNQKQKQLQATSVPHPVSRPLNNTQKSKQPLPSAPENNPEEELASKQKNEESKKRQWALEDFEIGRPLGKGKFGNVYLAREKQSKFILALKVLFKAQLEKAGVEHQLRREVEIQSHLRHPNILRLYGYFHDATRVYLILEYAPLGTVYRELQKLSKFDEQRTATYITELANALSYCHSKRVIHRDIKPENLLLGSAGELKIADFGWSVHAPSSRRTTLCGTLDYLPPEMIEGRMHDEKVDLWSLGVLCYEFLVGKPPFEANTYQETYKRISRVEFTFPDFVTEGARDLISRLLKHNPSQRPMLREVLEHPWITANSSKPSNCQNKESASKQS
Put shortly: as §1

The next assay concerns the target T2, UniProt O95382.
T2 sequence (whole entry): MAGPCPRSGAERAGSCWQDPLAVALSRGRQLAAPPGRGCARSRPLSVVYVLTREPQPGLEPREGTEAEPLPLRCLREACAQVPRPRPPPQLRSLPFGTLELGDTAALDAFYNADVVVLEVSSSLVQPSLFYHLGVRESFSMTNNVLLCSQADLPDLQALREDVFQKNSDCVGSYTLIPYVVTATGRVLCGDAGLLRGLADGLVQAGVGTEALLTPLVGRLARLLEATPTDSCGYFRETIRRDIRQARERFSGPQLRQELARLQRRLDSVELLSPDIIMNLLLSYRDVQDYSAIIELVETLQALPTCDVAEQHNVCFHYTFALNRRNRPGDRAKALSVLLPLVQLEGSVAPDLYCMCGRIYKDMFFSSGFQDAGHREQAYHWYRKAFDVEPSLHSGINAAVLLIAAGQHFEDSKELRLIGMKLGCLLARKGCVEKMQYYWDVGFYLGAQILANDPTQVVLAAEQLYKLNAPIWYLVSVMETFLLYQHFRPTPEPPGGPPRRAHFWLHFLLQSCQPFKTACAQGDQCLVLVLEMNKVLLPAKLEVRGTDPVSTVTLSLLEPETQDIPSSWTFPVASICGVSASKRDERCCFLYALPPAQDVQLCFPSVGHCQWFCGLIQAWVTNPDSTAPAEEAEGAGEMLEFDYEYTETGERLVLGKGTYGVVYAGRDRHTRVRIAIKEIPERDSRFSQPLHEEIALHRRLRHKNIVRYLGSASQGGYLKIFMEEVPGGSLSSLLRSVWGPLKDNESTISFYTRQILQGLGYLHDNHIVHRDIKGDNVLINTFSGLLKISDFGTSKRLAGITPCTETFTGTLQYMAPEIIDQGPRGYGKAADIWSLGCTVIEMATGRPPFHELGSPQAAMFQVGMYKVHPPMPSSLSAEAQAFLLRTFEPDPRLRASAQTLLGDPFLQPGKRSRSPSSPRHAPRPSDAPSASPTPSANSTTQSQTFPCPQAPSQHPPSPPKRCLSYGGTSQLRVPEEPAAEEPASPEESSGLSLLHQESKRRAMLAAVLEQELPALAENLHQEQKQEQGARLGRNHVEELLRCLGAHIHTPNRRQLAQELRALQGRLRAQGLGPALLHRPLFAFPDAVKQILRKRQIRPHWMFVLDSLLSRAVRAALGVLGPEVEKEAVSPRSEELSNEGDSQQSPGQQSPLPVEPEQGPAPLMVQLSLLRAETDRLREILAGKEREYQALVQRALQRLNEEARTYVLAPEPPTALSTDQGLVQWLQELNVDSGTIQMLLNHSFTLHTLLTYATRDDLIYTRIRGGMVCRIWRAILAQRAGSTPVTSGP
As to conditions: cell material: Lysate mix. Put shortly:
as §1

The next assay concerns the target T3, UniProt P51955.
T3 sequence (whole entry): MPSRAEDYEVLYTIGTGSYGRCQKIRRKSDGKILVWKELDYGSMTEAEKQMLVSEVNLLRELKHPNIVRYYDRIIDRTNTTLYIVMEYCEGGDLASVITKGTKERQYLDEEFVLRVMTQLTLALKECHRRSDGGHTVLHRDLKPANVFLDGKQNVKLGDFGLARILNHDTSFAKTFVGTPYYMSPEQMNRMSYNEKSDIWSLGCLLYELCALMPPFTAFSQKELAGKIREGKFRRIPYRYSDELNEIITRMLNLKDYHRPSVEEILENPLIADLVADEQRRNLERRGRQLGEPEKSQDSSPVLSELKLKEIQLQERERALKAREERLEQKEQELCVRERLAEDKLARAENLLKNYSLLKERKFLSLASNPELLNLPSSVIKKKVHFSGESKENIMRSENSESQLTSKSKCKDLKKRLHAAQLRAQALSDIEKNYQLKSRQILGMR
Put shortly:
as §1

Another assay addresses UniProt Q9Y2I7. The procedure, abridged:
as §1

A further assay deals with UniProt Q9Y2K2. Put shortly:
as §1

SMILES strings stand for the structures. Where only a bound is given, the exact number is not on record here.

Chain of BRAF (P15056 whole entry): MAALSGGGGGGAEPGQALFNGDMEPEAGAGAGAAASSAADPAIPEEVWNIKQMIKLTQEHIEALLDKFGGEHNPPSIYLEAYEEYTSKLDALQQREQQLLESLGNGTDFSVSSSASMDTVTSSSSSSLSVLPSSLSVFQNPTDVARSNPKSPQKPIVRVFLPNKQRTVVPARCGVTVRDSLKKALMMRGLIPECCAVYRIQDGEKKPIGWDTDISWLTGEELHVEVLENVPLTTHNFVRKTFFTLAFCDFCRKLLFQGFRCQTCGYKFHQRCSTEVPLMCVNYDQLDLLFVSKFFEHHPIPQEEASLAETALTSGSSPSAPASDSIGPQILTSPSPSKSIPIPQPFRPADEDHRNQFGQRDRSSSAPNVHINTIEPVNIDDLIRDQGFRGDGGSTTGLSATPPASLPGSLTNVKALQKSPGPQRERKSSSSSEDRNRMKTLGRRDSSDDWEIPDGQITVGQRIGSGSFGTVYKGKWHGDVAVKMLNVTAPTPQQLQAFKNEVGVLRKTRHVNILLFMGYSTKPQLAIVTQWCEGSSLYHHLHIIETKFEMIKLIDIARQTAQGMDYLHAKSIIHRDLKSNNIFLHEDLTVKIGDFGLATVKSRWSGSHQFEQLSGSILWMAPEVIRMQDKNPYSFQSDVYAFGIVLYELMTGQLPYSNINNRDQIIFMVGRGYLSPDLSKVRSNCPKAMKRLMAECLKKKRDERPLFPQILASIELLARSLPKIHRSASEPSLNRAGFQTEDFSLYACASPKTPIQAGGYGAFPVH
Chain of MARK2 (Q7KZI7 whole entry): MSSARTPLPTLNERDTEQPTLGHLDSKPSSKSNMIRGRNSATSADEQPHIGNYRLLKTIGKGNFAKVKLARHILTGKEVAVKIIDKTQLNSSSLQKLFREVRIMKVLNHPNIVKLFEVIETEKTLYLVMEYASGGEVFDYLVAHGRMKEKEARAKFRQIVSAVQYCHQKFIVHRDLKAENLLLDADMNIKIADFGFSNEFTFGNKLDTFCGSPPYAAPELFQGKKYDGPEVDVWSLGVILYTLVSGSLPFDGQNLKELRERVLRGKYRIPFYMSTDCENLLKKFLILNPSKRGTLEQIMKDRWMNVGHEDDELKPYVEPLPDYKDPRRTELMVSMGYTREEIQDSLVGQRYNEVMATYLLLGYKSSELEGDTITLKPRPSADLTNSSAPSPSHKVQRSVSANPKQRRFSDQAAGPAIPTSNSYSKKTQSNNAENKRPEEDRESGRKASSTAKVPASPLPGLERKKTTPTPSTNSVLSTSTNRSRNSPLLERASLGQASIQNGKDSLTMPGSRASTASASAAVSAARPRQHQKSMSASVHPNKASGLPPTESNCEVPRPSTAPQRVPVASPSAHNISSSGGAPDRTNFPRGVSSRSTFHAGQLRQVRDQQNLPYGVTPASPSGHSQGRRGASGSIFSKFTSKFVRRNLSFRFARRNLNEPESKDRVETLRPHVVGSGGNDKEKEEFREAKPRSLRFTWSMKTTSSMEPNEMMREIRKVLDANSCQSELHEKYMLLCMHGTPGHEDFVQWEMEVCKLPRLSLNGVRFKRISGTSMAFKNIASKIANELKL
Chain of UniProt Q9Y2I7 (Q9Y2I7 whole entry): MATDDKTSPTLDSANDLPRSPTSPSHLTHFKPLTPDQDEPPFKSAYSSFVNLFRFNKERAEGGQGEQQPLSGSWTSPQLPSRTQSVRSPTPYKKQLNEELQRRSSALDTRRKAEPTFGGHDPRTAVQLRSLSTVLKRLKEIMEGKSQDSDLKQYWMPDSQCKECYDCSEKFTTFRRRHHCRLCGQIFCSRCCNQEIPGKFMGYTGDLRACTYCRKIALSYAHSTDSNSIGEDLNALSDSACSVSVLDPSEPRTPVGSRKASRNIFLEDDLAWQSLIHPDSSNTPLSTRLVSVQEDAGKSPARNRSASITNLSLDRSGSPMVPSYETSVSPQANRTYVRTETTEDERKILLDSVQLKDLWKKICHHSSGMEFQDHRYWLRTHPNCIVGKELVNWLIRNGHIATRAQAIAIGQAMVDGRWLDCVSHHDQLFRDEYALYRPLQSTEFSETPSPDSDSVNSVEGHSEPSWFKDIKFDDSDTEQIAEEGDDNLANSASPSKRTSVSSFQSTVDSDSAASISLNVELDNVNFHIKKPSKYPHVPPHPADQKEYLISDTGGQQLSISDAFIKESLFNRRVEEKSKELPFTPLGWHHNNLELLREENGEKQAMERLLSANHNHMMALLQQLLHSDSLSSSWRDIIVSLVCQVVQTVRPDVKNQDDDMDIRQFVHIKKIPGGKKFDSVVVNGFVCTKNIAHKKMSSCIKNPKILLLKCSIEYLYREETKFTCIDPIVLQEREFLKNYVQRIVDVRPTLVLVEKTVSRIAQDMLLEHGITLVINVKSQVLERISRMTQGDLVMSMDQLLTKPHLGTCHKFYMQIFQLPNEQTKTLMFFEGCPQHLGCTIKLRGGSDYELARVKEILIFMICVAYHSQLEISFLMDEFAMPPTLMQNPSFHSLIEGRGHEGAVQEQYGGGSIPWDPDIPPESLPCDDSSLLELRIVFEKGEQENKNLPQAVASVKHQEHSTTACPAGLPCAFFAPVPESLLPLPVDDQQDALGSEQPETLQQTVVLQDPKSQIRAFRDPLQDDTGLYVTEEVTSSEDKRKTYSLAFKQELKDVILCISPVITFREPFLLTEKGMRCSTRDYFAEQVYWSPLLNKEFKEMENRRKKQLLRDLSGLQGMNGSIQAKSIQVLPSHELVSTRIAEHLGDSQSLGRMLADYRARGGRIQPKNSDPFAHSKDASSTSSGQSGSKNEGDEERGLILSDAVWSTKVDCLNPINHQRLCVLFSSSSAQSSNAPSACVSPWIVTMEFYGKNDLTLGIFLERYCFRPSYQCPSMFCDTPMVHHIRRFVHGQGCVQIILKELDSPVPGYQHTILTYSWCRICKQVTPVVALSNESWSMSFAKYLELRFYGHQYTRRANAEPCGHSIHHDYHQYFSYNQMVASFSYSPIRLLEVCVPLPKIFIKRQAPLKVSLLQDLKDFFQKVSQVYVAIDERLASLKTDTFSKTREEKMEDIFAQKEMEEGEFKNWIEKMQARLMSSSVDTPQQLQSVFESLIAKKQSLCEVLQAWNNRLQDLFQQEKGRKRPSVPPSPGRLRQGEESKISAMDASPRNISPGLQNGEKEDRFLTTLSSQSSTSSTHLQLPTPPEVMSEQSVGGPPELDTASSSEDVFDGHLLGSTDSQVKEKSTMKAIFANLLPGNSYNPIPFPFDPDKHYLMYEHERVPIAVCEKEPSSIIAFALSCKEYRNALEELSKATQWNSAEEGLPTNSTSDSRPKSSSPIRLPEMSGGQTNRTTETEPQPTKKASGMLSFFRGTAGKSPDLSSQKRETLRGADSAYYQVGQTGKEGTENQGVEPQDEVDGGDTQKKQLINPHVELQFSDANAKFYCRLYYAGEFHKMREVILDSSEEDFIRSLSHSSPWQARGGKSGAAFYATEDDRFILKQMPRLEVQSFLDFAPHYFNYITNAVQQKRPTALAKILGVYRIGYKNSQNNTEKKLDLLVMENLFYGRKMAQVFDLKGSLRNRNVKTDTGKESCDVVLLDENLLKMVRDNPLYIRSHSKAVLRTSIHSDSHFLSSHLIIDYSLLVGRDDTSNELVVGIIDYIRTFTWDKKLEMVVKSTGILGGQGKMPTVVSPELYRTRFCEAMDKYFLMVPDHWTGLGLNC
Chain of UniProt Q9Y2K2 (Q9Y2K2 whole entry, looked up): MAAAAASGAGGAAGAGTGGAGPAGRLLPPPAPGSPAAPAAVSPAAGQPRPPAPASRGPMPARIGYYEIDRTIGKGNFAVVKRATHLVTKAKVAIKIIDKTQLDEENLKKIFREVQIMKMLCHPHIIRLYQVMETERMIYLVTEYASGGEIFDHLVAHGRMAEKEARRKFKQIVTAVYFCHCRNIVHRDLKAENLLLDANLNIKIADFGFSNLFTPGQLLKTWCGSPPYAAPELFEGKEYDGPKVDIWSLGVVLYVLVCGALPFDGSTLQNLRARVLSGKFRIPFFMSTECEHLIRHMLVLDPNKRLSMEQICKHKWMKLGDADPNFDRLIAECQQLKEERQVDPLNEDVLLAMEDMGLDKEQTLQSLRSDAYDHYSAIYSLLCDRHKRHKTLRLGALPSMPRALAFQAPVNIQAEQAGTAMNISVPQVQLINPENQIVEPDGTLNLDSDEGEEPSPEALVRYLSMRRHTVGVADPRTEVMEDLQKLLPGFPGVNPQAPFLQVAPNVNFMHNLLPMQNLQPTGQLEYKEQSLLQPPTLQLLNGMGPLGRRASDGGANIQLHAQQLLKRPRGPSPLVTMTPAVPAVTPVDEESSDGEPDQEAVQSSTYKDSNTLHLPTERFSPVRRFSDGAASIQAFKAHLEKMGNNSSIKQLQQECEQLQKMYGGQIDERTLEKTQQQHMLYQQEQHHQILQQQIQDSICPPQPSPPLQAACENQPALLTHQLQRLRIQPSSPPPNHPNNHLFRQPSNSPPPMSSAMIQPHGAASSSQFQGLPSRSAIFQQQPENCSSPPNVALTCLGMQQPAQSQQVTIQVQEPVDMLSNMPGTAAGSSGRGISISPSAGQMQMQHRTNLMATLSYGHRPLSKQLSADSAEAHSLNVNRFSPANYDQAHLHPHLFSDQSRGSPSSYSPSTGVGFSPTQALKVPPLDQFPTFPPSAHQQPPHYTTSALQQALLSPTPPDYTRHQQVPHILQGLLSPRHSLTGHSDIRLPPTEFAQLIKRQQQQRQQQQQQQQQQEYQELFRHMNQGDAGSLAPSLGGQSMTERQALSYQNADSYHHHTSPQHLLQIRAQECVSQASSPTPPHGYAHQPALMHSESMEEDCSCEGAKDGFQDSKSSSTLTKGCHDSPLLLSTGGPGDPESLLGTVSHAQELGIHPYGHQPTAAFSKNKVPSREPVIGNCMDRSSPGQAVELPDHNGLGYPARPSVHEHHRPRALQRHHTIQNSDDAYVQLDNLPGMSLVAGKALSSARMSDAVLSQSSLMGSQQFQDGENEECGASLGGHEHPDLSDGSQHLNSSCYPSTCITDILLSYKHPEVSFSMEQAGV

`Cc1cc(Nc2cc(C(=O)NCCNC(=O)OC3CC/C=C/CCC3)nc(N3CCN(Cc4ccc(S(=O)(=O)F)cc4)CC3)n2)n[nH]1` (centres undefined): the negative logarithm of the IC50 (pIC50) on BRAF (cell material: Lysate mix) is < 4.52; at IGF1R (cell material: Lysate mix) it was < 4.52; on MARK2 (cell material: Lysate mix) it was < 4.52; at UniProt O14965 (cell material: Lysate mix), 5.39; on UniProt O95382, < 4.52; at UniProt P51955 (cell material: Lysate mix), < 4.52. The pIC50 on UniProt Q9Y2I7 (cell material: Lysate mix) and at UniProt Q9Y2K2 (cell material: Lysate mix) was < 4.52 each time.
Consider `C#CCNC(=O)c1cc(Nc2cc(C3CC3)[nH]n2)nc(N2CCN(Cc3ccc(S(=O)(=O)F)cc3)CC2)n1`, for which the pIC50 on BRAF (cell material: Jurkat cells) is 5.36; on BRAF (cell material: Jurkat lysate), < 4.52; on BRAF (cell material: Lysate mix), < 4.52; at IGF1R (cell material: Jurkat lysate) it was < 4.52; at IGF1R (cell material: Lysate mix) it was < 4.52; on MARK2 (cell material: Jurkat cells), 5.92. In addition, the pIC50 at MARK2 (cell material: Jurkat lysate) is < 4.52; on MARK2 (cell material: Lysate mix), < 4.52; at UniProt O14965 (cell material: Jurkat cells), 7.04; at UniProt O14965 (cell material: Jurkat lysate), 6.25; at UniProt O14965 (cell material: Lysate mix), 7.06; on UniProt O95382, < 4.52. Moreover, the pIC50 is 6.69 on UniProt P51955 (cell material: Jurkat cells); 5.41 at UniProt P51955 (cell material: Jurkat lysate); 5.87 on UniProt P51955 (cell material: Lysate mix); 5.27 on UniProt Q9Y2I7 (cell material: Jurkat cells); < 4.52 at UniProt Q9Y2I7 (cell material: Jurkat lysate); < 4.52 at UniProt Q9Y2I7 (cell material: Lysate mix). Also, the pIC50 at UniProt Q9Y2K2 (cell material: Jurkat lysate) and at UniProt Q9Y2K2 (cell material: Lysate mix) was < 4.52 in each case.
As for `CCNC(=O)c1cc(Nc2cc(C3CC3)[nH]n2)nc(N2CCN(Cc3ccc(S(=O)(=O)F)cc3)CC2)n1`, the pIC50 at BRAF (cell material: Lysate mix) was < 4.52; on IGF1R (cell material: Lysate mix), < 4.52; at MARK2 (cell material: Lysate mix), < 4.52; on UniProt O14965 (cell material: Lysate mix), 6.86; at UniProt O95382, < 4.52; at UniProt P51955 (cell material: Lysate mix) it was 5.69. Moreover, the pIC50 at UniProt Q9Y2I7 (cell material: Lysate mix) and at UniProt Q9Y2K2 (cell material: Lysate mix) was < 4.52 each time.
Turning to `C#CCNC(=O)c1cc(Nc2cc(C)[nH]n2)nc(N2CCN(Cc3ccc(S(=O)(=O)F)cc3)CC2)n1`, the pIC50 at BRAF (cell material: Lysate mix) was < 4.52; on IGF1R (cell material: Lysate mix), < 4.52; on MARK2 (cell material: Lysate mix) it was < 4.52; on UniProt O14965 (cell material: Lysate mix), 6.73; on UniProt O95382, 4.63; on UniProt P51955 (cell material: Lysate mix), 4.81. Also, the negative logarithm of the IC50 (pIC50) at UniProt Q9Y2I7 (cell material: Lysate mix) and at UniProt Q9Y2K2 (cell material: Lysate mix) was < 4.52 in each case.
In the case of `O=C(NCCNC(=O)c1cc(Nc2cc(C3CC3)[nH]n2)nc(N2CCN(Cc3ccc(S(=O)(=O)F)cc3)CC2)n1)OC1CC/C=C/CCC1` (centres undefined), the pIC50 on BRAF (cell material: Jurkat cells), at BRAF (cell material: Jurkat lysate), at BRAF (cell material: Lysate mix), at IGF1R (cell material: Jurkat cells), on IGF1R (cell material: Jurkat lysate) and on IGF1R (cell material: Lysate mix) was < 4.52 throughout. For the same compound, the pIC50 was 5.04 on MARK2 (cell material: Jurkat cells); < 4.52 on MARK2 (cell material: Jurkat lysate); < 4.52 on MARK2 (cell material: Lysate mix); 6.98 at UniProt O14965 (cell material: Jurkat cells); 5 on UniProt O14965 (cell material: Jurkat lysate); 5.3 on UniProt O14965 (cell material: Lysate mix). Also, the pIC50 at UniProt O95382 was < 4.52; at UniProt P51955 (cell material: Jurkat cells), 6.24; at UniProt P51955 (cell material: Jurkat lysate), < 4.52; at UniProt P51955 (cell material: Lysate mix), < 4.52; on UniProt Q9Y2I7 (cell material: Jurkat cells), < 4.52; on UniProt Q9Y2I7 (cell material: Jurkat lysate), < 4.52. In addition, the pIC50 on UniProt Q9Y2I7 (cell material: Lysate mix), on UniProt Q9Y2K2 (cell material: Jurkat cells), at UniProt Q9Y2K2 (cell material: Jurkat lysate) and on UniProt Q9Y2K2 (cell material: Lysate mix) was < 4.52 each time.
In the case of `CCNC(=O)c1cc(Nc2cc(C)[nH]n2)nc(N2CCN(Cc3ccc(S(=O)(=O)F)cc3)CC2)n1`, the pIC50 on BRAF (cell material: Lysate mix) was < 4.52; on IGF1R (cell material: Lysate mix) it was < 4.52; on MARK2 (cell material: Lysate mix) it was < 4.52; on UniProt O14965 (cell material: Lysate mix), 7.67; at UniProt O95382 it was 4.66; on UniProt P51955 (cell material: Lysate mix) it was 4.67. For the same compound, the pIC50 on UniProt Q9Y2I7 (cell material: Lysate mix) and on UniProt Q9Y2K2 (cell material: Lysate mix) was < 4.52 in each case.

The values are drawn from the supplement of paper PMC12076712.
